What was measured:
normal SD rats (SLAC/SD) = assay: Blood glucose in normal SD rats treated with HPCs of NSAIAs; format: in vivo; details: 30 mg/kg transdermally once per day, no fasting
Protocol: (§1) A HPC in the present disclosure lowered blood glucose levels in rat models (SLAC/GK, type 2 diabetes, n=7). 30 mg/kg of 8% diethylaminoethyl acetylsalicylate.HCl salt (P-1, in 25% ethanol); 4-acetamidophenyl salicylyldimethylaminobutyrate.HCl (P-6, in 25% ethanol), diethylaminoethyl 5-(2,4-difluorophenyl)acetylsalicylate.5-(2,4-difluorophenyl)acetylsalicylic acid salt (P-8, in 25% ethanol), diethylaminoethyl salicylsalicylate.HCl salt (P-9, in 25% ethanol), diethylaminoethyl salicylate.AcOH(P-10, in 25% ethanol), diethylaminoethyl 5-acetamido-acetylsalicylate.HCl(P-58, in 25% ethanol), diethylaminoethyl acetylsalicylsalicylate. HCl salt (P-59, in 25% ethanol), diethylaminoethyl acetylsalicylsalicylsalicylate. HCl salt (P-60, in 25% ethanol) were administered transdermally to the backs (6 cm^2, fur was shaved) of GK rats (SLAC/GK, 14-16 weeks old) and normal SD rats (SLAC/SD, 14-16 weeks old) once per day (at 8 am) for 6 weeks.
(§2) The blood glucose levels were measured once every 3 days at 4:30 pm (no fasting) from the third week to the sixth week as shown in Table 10a and 10b. […] Moreover, the blood glucose levels of the rats stayed at normal level (6-9 mmol/L, no fasting) after the treatment was stopped for 40 days.

[1] = tested on: SLAC:NOD-IDDM, type 1 diabetes; assay: Anti-diabetes (type I) activity of HPCs of NSAIAs; format: in vivo, mice; details: for blood glucose, Baseline: equal to 20 mg/kg of NSAIAs transdermally twice per day for 7 weeks; for blood glucose, Average: fourth week to seventh week, no fasting, equal to 20 mg/kg of NSAIAs transdermally twice per day
Text: 10% aqueous solution of diethylaminoethyl acetylsalicylate.acetylsalicylic acid salt (P-1, […]); 4-acetamidophenyl salicylyldimethylaminobutyrate. HCl (P-6), diethylaminoethyl 5-(2,4-difluorophenyl)acetylsalicylate.5-(2,4-difluorophenyl)acetylsalicylic acid salt (P-8), diethylaminoethyl salicylsalicylate.AcOH(P-9), diethylaminoethyl 5-acetamido-acetylsalicylate. HCl (P-58), diethylaminoethyl 2-(ρ-isobutylphenyl) propionate.citric acid (P-59), diethylaminoethyl acetylsalicylsalicylate. acetylsalicylsalicylsalicylic acid salt (P-60) (equal to of 20 mg/kg of NSAIAs) were administered transdermally to the shaved back (about 1.5 cm^2) of mice twice per day (at 8 am and 5 pm) for 7 weeks.
The blood glucose levels were measured once every 3 days at 4:30 pm (no fasting) from the fourth week to the seventh week as shown in Table 11.

[2] = tested on: GK rats (SLAC/GK, type 2 diabetes); assay: Anti-diabetes (type II) activity of HPCs of NSAIAs in GK rats; format: in vivo; details: 30 mg/kg transdermally once per day, no fasting
Protocol: as §1, §2

SLAC/DB/DB obese mice = assay: Blood glucose and blood lipid levels in DB/DB mice; format: in vivo; details: 30 mg/kg transdermally once per day
Protocol: HPCs in the present disclosure lowered blood glucose levels and blood lipid levels in mice models (SLAC/DB/DB, obese mice, n=7). 30 mg/kg of 8% diethylaminoethyl acetylsalicylate.HCl salt (P-1, in 25% ethanol); 4-acetamidophenyl salicylyldimethylaminobutyrate.HCl (P-6, in 25% ethanol), diethylaminoethyl 5-(2,4-difluorophenyl)acetylsalicylate.5-(2,4-difluorophenyl)acetylsalicylic acid salt (P-8, in 25% ethanol), diethylaminoethyl salicylsalicylate.HCl salt (P-9, in 25% ethanol), diethylaminoethyl salicylate.AcOH(P-10, in 25% ethanol), diethylaminoethyl 5-acetamido-acetylsalicylate.HCl(P-58, in 25% ethanol), diethylaminoethyl acetylsalicylsalicylate.HCl salt (P-59, in 25% ethanol), diethylaminoethyl acetylsalicylsalicylsalicylate.HCl salt (P-60, in 25% ethanol) were administered transdermally to the backs (4 cm^2,fur was shaved) of DB/DB mice(SLAC/DB/DB, 10-12 weeks old) once per day (at 8 am) for 5 weeks. The blood glucose levels were measured once per week and blood lipid levels were measured once every other week.

[3] = tested on: human myeloma cell line implanted into mice; assay: Survival of mice with multiple myeloma (Example 110, Study B); format: in vivo; details: n=5
Protocol: Study B: For evaluation of antitumor activity, a human myeloma cell line derived from the ascites of a patient with multiple myeloma was implanted into mice. The experiment was carried out on 17 groups of mice. Control group (A, orally), chlorambucil (group B1: 1 mg/kg, orally, group B2, 3 mg/kg, orally, group B3:1 mg/kg, transdermally, and group B4: 3 mg/kg, transdermally), melphalan (group C1: 1 mg/kg, orally, group C2, 3 mg/kg, orally, group C3:1 mg/kg, transdermally, and group C4: 3 mg/kg, transdermally), N,N-diethylaminoethyl 4-[bis(2-chloroethyl)amino]benzenebutyrate.HBr (the HPC of chlorambucil (group D1: 1 mg/kg, orally, group D2, 3 mg/kg, orally, group D3:1 mg/kg, transdermally, and group D4: 3 mg/kg, transdermally), and 4-[bis(2-chloroethyl)amino]-N-acetyl-L-phenylalanine N,N-diethylaminoethyl ester hydrobromide (the HPC of melphalan) (group E1: 1 mg/kg, orally, group E2, 3 mg/kg, orally, group E3:1 mg/kg, transdermally, and group E4: 3 mg/kg, transdermally).

[4] = tested on: human myeloma cell line implanted into mice; assay: Survival and weight loss of myeloma mice (Example 111); format: in vivo; details: orally; for Weight Loss: day 21; for Life Elongation Rate / None Disease Rate / Survival Period: n=7
Text: A human myeloma cell line derived from the ascites of a patient with multiple myeloma was implanted into mice. The mice was divided into 11 groups: control group (A, orally), melphalan (B1 and B2, orally), chlorambucil (C1 and C2, orally), N,N-diethylaminoethyl 4-[bis(2-chloroethyl)amino]benzenebutyrate.HBr (D1 and D2, transdermally), 4-[bis(2-chloroethyl)amino]-N-acetyl-L-phenylalanine N,N-diethylaminoethyl ester hydrobromide (E1 and E2, transdermally in 5% aqueous solution), and diethylaminoethyl 4-[bis(2-methylsulfonylethyl)amino]benzenebutyrate.HCl (F1 and F2, transdermally in 5% aqueous solution). The body weight loss of mice was determined on day 21.

[5] = tested on: Human Gastric Cancer HGC-27 cell; assay: HGC-27 cell proliferation, MTT assay; format: cell-based; details: Homo sapiens, HGC-27, 72 hours, read-out: HGC-27 cell growth inhibition rate
Protocol: The inhibition of cellular proliferation was measured by the modified dimethyl thiazolyl diphenyl tetrazolium salt (MTT) [3-(4,5-dimethylthiazol-2-yl)-2,5-diphenyltetrazolium bromide] assay, based on the ability of live cells to converting thiazolyl blue to dark blue formazan. Approximately 3500 cells of HGC-27 (in 100 μl culture solution) were seeded into 96-well culture plates and were cultured for 16 hours at 37° C. Different concentration solution (100 μl) of Taxol (positive control), chlorambucil, or N,N-diethylaminoethyl 4-[bis(2-chloroethyl)amino]benzenebutyrate.HCl salt (HPC of chlorambucil) were added and incubation continued for 72 hours at 37° C. Then MTT were added and incubation continued at 37° C. for 4 h, and 100 μl DMSO was pipetted to solubilize the formazan product for 30 min at room temperature. The absorbency at 570 nm was measured using Bio-Rad micro-plate reader […].

CC(=O)Oc1ccc(-c2ccc(F)cc2F)cc1C(=O)O.CCN(CC)CCOC(=O)c1cc(-c2ccc(F)cc2F)ccc1OC(C)=O [P-8, diethylaminoethyl 5-(2,4-difluorophenyl)acetylsalicylate.5-(2,4-difluorophenyl)acetylsalicylic acid salt]
blood glucose, Average (Week 2-5) (normal SD rats (SLAC/SD)): 5.7 ± 1.2 mmol/L
blood glucose, Day 1 (normal SD rats (SLAC/SD)): 5.6 ± 1.5 mmol/L
blood glucose, Baseline [1]: 19.4 ± 3.1 mmol/L
blood glucose, Average [1]: 9.7 ± 1.4 mmol/L
blood glucose, Average (Week 2-5) [2]: 8.3 ± 2.1 mmol/L
blood glucose, Day 1 [2]: 16.9 ± 2.8 mmol/L
Cholesterol (total), Day 1 (SLAC/DB/DB obese mice): 6.8 ± 0.4 mmol/L
Cholesterol (total), Week 5 (SLAC/DB/DB obese mice): 5.0 ± 0.2 mmol/L
Triglycerides, Day 1 (SLAC/DB/DB obese mice): 4.4 ± 0.4 mmol/L
Triglycerides, Week 5 (SLAC/DB/DB obese mice): 2.2 ± 0.4 mmol/L
blood glucose, Day 1 (SLAC/DB/DB obese mice): 14.5 ± 2.7 mmol/L
blood glucose, Week 5 (SLAC/DB/DB obese mice): 8.4 ± 2.1 mmol/L

O=C(O)CCCc1ccc(N(CCCl)CCCl)cc1 [chlorambucil, reference compound]
Life Elongation Rate ([3]; 1 mg/kg per day, orally): 107%
Survival Period ([3]; 1 mg/kg per day, orally): 48.7 ± 5.3 days
Life Elongation Rate ([3]; 1 mg/kg per day, transdermally): 99%
Survival Period ([3]; 1 mg/kg per day, transdermally): 46.1 ± 3.6 days
Life Elongation Rate ([3]; 3 mg/kg per day, orally): 151%
Survival Period ([3]; 3 mg/kg per day, orally): 68.5 ± 4.2 days
Life Elongation Rate ([3]; 3 mg/kg per day, transdermally): 98%
Survival Period ([3]; 3 mg/kg per day, transdermally): 44.6 ± 3.6 days
Weight Loss ([4]; 1.5 mg/kg per day): 10%
Life Elongation Rate ([4]; 1.5 mg/kg per day): 126%
None Disease Rate ([4]; 1.5 mg/kg per day): 2/7
Survival Period ([4]; 1.5 mg/kg per day): 54.8 ± 5.5 days
Weight Loss ([4]; 3 mg/kg per day): 17%
Life Elongation Rate ([4]; 3 mg/kg per day): 200%
None Disease Rate ([4]; 3 mg/kg per day): 3/7
Survival Period ([4]; 3 mg/kg per day): 87.2 ± 6.9 days
inhibition at 0.5 µM ([5]; 0.5 μM): 0.3%
inhibition at 2 µM ([5]; 2.0 μM): 1.6%
inhibition at 5 µM ([5]; 5.0 μM): 12.5%
inhibition at 25 µM ([5]; 25 μM): 31.5%
inhibition at 50 µM ([5]; 50 μM): 39.4%
inhibition at 75 µM ([5]; 75 μM): 41.5%
inhibition at 100 µM ([5]; 100 μM): 53.1%
inhibition at 200 µM ([5]; 200 μM): 62.1%
inhibition at 500 µM ([5]; 500 μM): 81%

CCN(CC)CCOC(=O)c1ccccc1OC(=O)c1ccccc1O.Cl [P-9, diethylaminoethyl salicylsalicylate.HCl salt]
blood glucose, Average (Week 2-5) (normal SD rats (SLAC/SD)): 5.6 ± 1.2 mmol/L
blood glucose, Day 1 (normal SD rats (SLAC/SD)): 5.5 ± 1.3 mmol/L
blood glucose, Baseline [1]: 16.5 ± 3.6 mmol/L
blood glucose, Average [1]: 8.4 ± 1.9 mmol/L
blood glucose, Average (Week 2-5) [2]: 9.4 ± 2.7 mmol/L
blood glucose, Day 1 [2]: 16.4 ± 2.3 mmol/L
Cholesterol (total), Day 1 (SLAC/DB/DB obese mice): 7.7 ± 0.5 mmol/L
Cholesterol (total), Week 5 (SLAC/DB/DB obese mice): 4.9 ± 0.5 mmol/L
Triglycerides, Day 1 (SLAC/DB/DB obese mice): 4.1 ± 0.4 mmol/L
Triglycerides, Week 5 (SLAC/DB/DB obese mice): 2.1 ± 0.3 mmol/L
blood glucose, Day 1 (SLAC/DB/DB obese mice): 14.1 ± 2.5 mmol/L
blood glucose, Week 5 (SLAC/DB/DB obese mice): 8.7 ± 2.3 mmol/L

CCN(CC)CCOC(=O)c1ccccc1OC(=O)c1ccccc1OC(=O)c1ccccc1OC(C)=O.Cl [P-60, diethylaminoethyl acetylsalicylsalicylsalicylate. HCl salt]
blood glucose, Average (Week 2-5) (normal SD rats (SLAC/SD)): 5.7 ± 1.1 mmol/L
blood glucose, Day 1 (normal SD rats (SLAC/SD)): 5.6 ± 1.3 mmol/L
blood glucose, Baseline [1]: 17.5 ± 3.3 mmol/L
blood glucose, Average [1]: 8.8 ± 1.9 mmol/L
blood glucose, Average (Week 2-5) [2]: 9.3 ± 2.9 mmol/L
blood glucose, Day 1 [2]: 15.9 ± 2.8 mmol/L
Cholesterol (total), Day 1 (SLAC/DB/DB obese mice): 7.0 ± 0.8 mmol/L
Cholesterol (total), Week 5 (SLAC/DB/DB obese mice): 5.0 ± 0.4 mmol/L
Triglycerides, Day 1 (SLAC/DB/DB obese mice): 4.3 ± 0.5 mmol/L
Triglycerides, Week 5 (SLAC/DB/DB obese mice): 4.3 ± 0.5 mmol/L
blood glucose, Day 1 (SLAC/DB/DB obese mice): 14.8 ± 2.7 mmol/L
blood glucose, Week 5 (SLAC/DB/DB obese mice): 9.0 ± 2.1 mmol/L

CCN(CC)CCOC(=O)c1cc(NC(C)=O)ccc1OC(C)=O.Cl [P-58, diethylaminoethyl 5-acetamido-acetylsalicylate.HCl]
blood glucose, Average (Week 2-5) (normal SD rats (SLAC/SD)): 5.8 ± 1.1 mmol/L
blood glucose, Day 1 (normal SD rats (SLAC/SD)): 5.9 ± 1.2 mmol/L
blood glucose, Baseline [1]: 17.9 ± 3.2 mmol/L
blood glucose, Average [1]: 8.1 ± 1.9 mmol/L
blood glucose, Average (Week 2-5) [2]: 9.4 ± 3.0 mmol/L
blood glucose, Day 1 [2]: 17.1 ± 2.8 mmol/L
Cholesterol (total), Day 1 (SLAC/DB/DB obese mice): 7.1 ± 0.3 mmol/L
Cholesterol (total), Week 5 (SLAC/DB/DB obese mice): 5.1 ± 0.6 mmol/L
Triglycerides, Day 1 (SLAC/DB/DB obese mice): 4.9 ± 0.4 mmol/L
Triglycerides, Week 5 (SLAC/DB/DB obese mice): 4.3 ± 0.5 mmol/L
blood glucose, Day 1 (SLAC/DB/DB obese mice): 15.6 ± 2.9 mmol/L
blood glucose, Week 5 (SLAC/DB/DB obese mice): 9.3 ± 2.1 mmol/L

CC(=O)Nc1ccc(OC(=O)c2ccccc2OC(=O)CCCN(C)C)cc1.Cl [P-6, 4-acetamidophenyl salicylyldimethylaminobutyrate.HCl]
blood glucose, Average (Week 2-5) (normal SD rats (SLAC/SD)): 5.8 ± 1.1 mmol/L
blood glucose, Day 1 (normal SD rats (SLAC/SD)): 5.7 ± 1.3 mmol/L
blood glucose, Baseline [1]: 18.9 ± 4.3 mmol/L
blood glucose, Average [1]: 9.5 ± 2.1 mmol/L
blood glucose, Average (Week 2-5) [2]: 9.2 ± 2.7 mmol/L
blood glucose, Day 1 [2]: 16.8 ± 3.0 mmol/L
Cholesterol (total), Day 1 (SLAC/DB/DB obese mice): 7.0 ± 0.4 mmol/L
Cholesterol (total), Week 5 (SLAC/DB/DB obese mice): 4.9 ± 0.5 mmol/L
Triglycerides, Day 1 (SLAC/DB/DB obese mice): 4.4 ± 0.5 mmol/L
Triglycerides, Week 5 (SLAC/DB/DB obese mice): 2.5 ± 0.3 mmol/L
blood glucose, Day 1 (SLAC/DB/DB obese mice): 14.2 ± 2.0 mmol/L
blood glucose, Week 5 (SLAC/DB/DB obese mice): 9.5 ± 2.8 mmol/L

Reference: patent US11541029B2, “High penetration compositions and their applications” (Techfields Pharma Co., Ltd., priority 2008, dated 2023)
